Data set [1] is described as follows: Solubility of Greek key peptides. In kind it is physicochemical. The note with it: aqueous medium / water.
Data set [2] is described as follows: Stains-all binding assay (induced CD). Conditions: peptides; dye 43 μM. As to the method:
Stains-all Binding Assay-Aliquots of protein solutions were added to the Stains-all solution and mixed gently. Circular dichroism induced in the achiral dye upon binding to the protein was measured in the visible region of the spectrum (400-700 nm). The dye solution and the crystallins were prepared in 2 mM MOPS buffer, pH 7.2, containing 30% ethylene glycol (34, 35). Ellipticities were expressed in millidegrees.
CD spectra of Stains-all induced upon binding to crystallin were recorded in 2 mM MOPS buffer, pH 7.2, containing 30% ethylene glycol, path length 1 cm. Dye concentration in all experiments was 16 μM. The ellipticity data are represented in millidegrees. A, CD spectra recorded with increasing concentration of -crystallin; 1, 0.026 mg/ml (---); 2, 0.078 mg/ml (- - -); 3, 0.13 mg/ml -.-.-. and 4, 0.156 mg/ml (. . .). B, effect of calcium on Stains-all--crystallin complex spectra. Calcium was added in the dye-protein mixture (-crystallin concentration was […]), and CD was recorded. Calcium concentrations used are as follows: 1, no calcium (---); 2, 50 μM calcium (- - - -); 3, 100 μM calcium (. . .); 4, 200 μM calcium (-.-.-.); and 5, 300 μM calcium (-..-..). The J band was abolished with 300-μM calcium.
CD spectra of Stains-all induced upon binding to peptides were recorded. Dye concentration in all experiments was 43 μM. The ellipticity data are represented in millidegrees. a, CD spectra were recorded with increasing concentration of the wild type peptide g3; 0.013 mg/ml (---), 0.037 mg/ml (- - -), and 0.057 mg/ml (. . . .). b, effect of calcium on Stains-all-peptide complex. Calcium was added to the dye-peptide mixture (peptide concentration was 57 μg/ml) and calcium concentrations used were: no calcium (---), 0.7 mM calcium (- - - -), and 7.5 mM calcium (. . . .). c and d represent the Stains-all binding of the modified peptides, g3a and g3b. Identical concentrations of dye and peptides were used.

A short description of data set [3]: 45Ca overlay method (peptide dot-blot). The format is binding. The note with it: dot-blot on polyvinylidene difluoride membrane. As to the method:
Calcium Binding Studies by ^45Ca Overlay Method-Calcium binding to peptides was done by ^45Ca overlay method of Maruyama et al, 133). […] of peptides were spotted onto a polyvinylidene difluoride membrane by dot-blot apparatus. The membrane was equilibrated in a solution containing 10-mM imidazole HCl. pH 6.8, 60 mM KCl, 5 mM MgCl2 and then incubated for 15 min at 25° C. in the same buffer containing 1 microCi/mil ^45Ca. The membrane was then rinsed twice in 45% ethanol, blotted dry, and exposed to PhosphorImager screen, and the signal was read in Phosphorimager (Fuji Bas-1800).
The wild type peptide g3, its variants (g3a and g3b) and s3a were spotted onto a polyvinylidene difluoride membrane and detected by ^45Ca overlay. For a positive control, EF-hand peptide corresponding to site 4 of rat neuronal calcium sensor-1 was used; bovine serum albumin (BSA) was used as a negative control.

The nature of data set [4]: Calcium binding of single crystallin domain of AIMI. The note with it: compared with gamma-crystallin.

Where no end group is shown, it is not given here.

For “s3a: control peptide, first Greek key motif of spherulin 3a (residues 14-56), Seq. ID No. 4 (GEVFLYKHVNFQGDSWKVTGNVYDFRSVSGLNDVVSSVKVGPN)”, the solubility result in data set [1] was “not soluble in water”. Also, the “Stains-all binding, induced CD band” value in data set [2] was “binds the dye and induces a calcium-sensitive band at 470-475 nm”. Consider “g3a: g3 mutant with Glu-95 and Glu-121 modified to Lys, Seq. ID No. 2 (RMRIYKRDDFRGQMSEITDDCPSLQDRFHLTKVHSLNVLEGS)”, for which, in data set [3], the 45Ca binding result is given as “do not show detectable binding”. For the same molecule, the “Stains-all binding, induced CD band” value in data set [2] is listed as “decreased several fold”. With “RMRIYERDDFRGQMSEITDDCPSLQDRFHLTEVHSLNVLEGS [g3]”, in data set [1], the solubility result is on record as “fairly soluble in aqueous medium”. On to “g3b: g3 mutant with aspartates 108 and 109 replaced by Lys, Seq. ID No. 3 (RMRIYERDDFRGQMSEITKKCPSLQDRFHLTEVHSLNVLEGS)”, for which the 45Ca binding result in data set [3] is recorded as “do not show detectable binding”. Also, in data set [2], the “Stains-all binding, induced CD band” value was “binds the dye and induces the band”.

B1: AIMI: single crystallin domain of AIMI (absent in melanoma), 1022-1117 residues, comprising two Greek keys (protein, UniProt Q9Y4K1 1022-1117, looked up, fragment)
chain: AAKSGPQVIPPASEKTLPIQAQSQGSRTPLMAESSPTNSPSSGNHLATPQRPDQTVTNGQDSPASLLNISAGSDDSVFDSSSDMEKFTEIIKQMDS
modifications: crystallin domain
notes: single crystallin domain of AIMI (absent in melanoma), 1022-1117 residues, comprising two Greek keys
On to B1, for which, in data set [4], the calcium binding affinity entry is listed as “binds calcium with a comparative affinity to gamma-crystallin”.

The record behind these values is patent US7711497B2, “Method of identifying calcium-binding sites in gamma-crystallin useful for management of cataract” (Council of Scientific and Industrial Research, priority 2002, dated 2010).
